Read-outs that look alike come from different tables or passages of the source.
Experiments:
[1] = system: animal models; conditions: cited from earlier work
[2] = system: asthma patients (FEV1); conditions: cited from earlier work
[3] = cited from earlier work
[4] = system: AKI in adult patients; assay: Epidemiologic EHR analysis (Vanderbilt 'Synthetic Derivative') of montelukast use and AKI; assay type: in vivo, human; conditions: N=3,721 adult patients, 147 users; logistic regression adjusted for race, sex, age, BMI, asthma; 95% CI: 13 to 56%; AKI defined as printed '≥21.5-fold serum creatine increase from baseline'
Text: Epidemiologic EHR data from Vanderbilt's ‘Synthetic Derivative’ was examined to determine whether montelukast use is associated with decreased AKI. Individuals eligible for inclusion in the dataset included those with two or more serum creatinine labs occurring after montelukast gained marketing approval (N=3,721), and children were excluded. Montelukast users were defined as those with ≥23 mentions of montelukast where 22 mentions are 230 days apart (N=147). AKI was defined as a ≥21.5-fold serum creatine increase from baseline (N=1,220). ‘Case users’ were defined as those who qualified as both an AKI case and a montelukast user (N=58). Crude and adjusted odds ratios (OR) and 95% confidence intervals (CI) were calculated using logistic regression.

[5] = cited from earlier work; remark: listed apart in the source
[6] = single oral dose of 10, 100, or 250 mg

CC(C)(O)c1ccccc1CC[C@@H](SCC1(CC(=O)O)CC1)c1cccc(/C=C/c2ccc3ccc(Cl)cc3n2)c1 [Montelukast, [R-(E)]-1-[[[1-[3-[2-(7-chloro-2-quinolinyl)ethenyl]phenyl]-3-[2-(1-hydroxy-1-methylethyl)phenyl]propyl]thio]methyl]cyclopropaneacetic acid]
markers of inflammation [1]: attenuate markers of inflammation | markers of oxidative stress ([1]; leukotriene antagonists such as montelukast): attenuate markers of oxidative stress | FEV1 increase at higher doses versus 10 mg once daily ([2]; 200 mg three times per day): failed to increase FEV1 more than 10 mg once daily | period for which FEV1 effects were maintained [2, 6]: 24 h | time to significant improvement of FEV1 after administration [2, 6]: ≤ 1 h | plasma concentration in dose ranging study ([3]; dose ranging study of 20-800 mg): dose-dependent increase in plasma concentration | half-life ([3]; human, in vivo): 5 h | potential for drug-drug interactions ([3]; human, in vivo): low potential for drug-drug interactions | steady state plasma levels achieved ([3]; human, in vivo): 2 Day of dosing | pharmacokinetics in elderly volunteers versus younger adults ([3]; oral 10 mg, elderly (aged 265 years as printed) vs younger adults (aged 20 to 45 years)): similar | elimination via the renal route ([3]; package insert): not significantly eliminated via the renal route | reduced odds (risk) of AKI, montelukast users compared to non-users [4]: 38% | adverse events ([5]; 200 mg three times per day for 10 days): no significant adverse events | safety or effectiveness in subjects 65 years and over versus younger subjects ([5]; clinical studies of montelukast, 3.5% were 65 and over, 0.4% were 75 and over): No overall differences in safety or effectiveness | neuropsychiatric disturbances ([5]; phase IV post marketing studies, chronic montelukast users, additional research did not support this finding): concern for neuropsychiatric disturbances was noted | adverse events ([5]; single doses of 800 mg): no significant adverse events

From patent US12383547B2, “Methods of treatment for a kidney disease” (Vanderbilt University, priority 2020, dated 2025)
